{
  "source": "paper PMC10507085",
  "about": "“Pharmacological inhibition of TBK1/IKKε blunts immunopathology in a murine model of SARS-CoV-2 infection” (Nature Communications, 2023)",
  "key": {"[1]": {"target": "T1, ADCK4 (Homo sapiens, UniProt Q96D53)", "T1 construct": "gene COQ8B", "T1 sequence (Q96D53 whole entry)": "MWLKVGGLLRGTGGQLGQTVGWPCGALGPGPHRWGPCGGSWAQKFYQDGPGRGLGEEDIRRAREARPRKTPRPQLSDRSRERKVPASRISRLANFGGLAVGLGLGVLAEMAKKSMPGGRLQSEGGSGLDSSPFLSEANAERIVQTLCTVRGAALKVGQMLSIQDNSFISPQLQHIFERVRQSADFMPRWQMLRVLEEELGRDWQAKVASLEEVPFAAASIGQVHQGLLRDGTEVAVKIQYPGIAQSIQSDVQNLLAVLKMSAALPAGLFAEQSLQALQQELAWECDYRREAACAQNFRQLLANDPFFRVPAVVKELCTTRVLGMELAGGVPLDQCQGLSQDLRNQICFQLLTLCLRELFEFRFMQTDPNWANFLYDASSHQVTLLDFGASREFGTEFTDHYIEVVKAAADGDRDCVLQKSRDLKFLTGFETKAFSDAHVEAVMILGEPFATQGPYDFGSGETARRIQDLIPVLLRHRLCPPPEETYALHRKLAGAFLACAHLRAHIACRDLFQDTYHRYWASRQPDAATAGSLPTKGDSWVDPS", "assay": "biochemical", "design": "KINOMEscan competition binding, DNA-tagged kinase against immobilised ligand, qPCR read-out", "conditions": "read-out: Percent Control"}, "[2]": {"target": "MYLK4 (Homo sapiens, UniProt Q86YV6)", "sequence (Q86YV6 whole entry)": "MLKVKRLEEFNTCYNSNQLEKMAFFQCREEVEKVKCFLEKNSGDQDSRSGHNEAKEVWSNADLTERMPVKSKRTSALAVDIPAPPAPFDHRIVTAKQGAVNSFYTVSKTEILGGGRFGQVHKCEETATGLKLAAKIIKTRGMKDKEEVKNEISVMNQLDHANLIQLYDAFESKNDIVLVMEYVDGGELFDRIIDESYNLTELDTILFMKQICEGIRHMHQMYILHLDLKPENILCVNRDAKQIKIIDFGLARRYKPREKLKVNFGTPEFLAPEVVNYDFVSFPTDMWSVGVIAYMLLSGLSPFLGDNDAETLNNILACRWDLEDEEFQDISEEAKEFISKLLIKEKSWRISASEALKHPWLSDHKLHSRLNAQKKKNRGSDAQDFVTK", "assay": "biochemical", "design": "KINOMEscan competition binding, DNA-tagged kinase against immobilised ligand, qPCR read-out", "conditions": "read-out: Percent Control"}, "[3]": {"target": "AKT3 (Homo sapiens, UniProt Q9Y243)", "sequence (Q9Y243 whole entry)": "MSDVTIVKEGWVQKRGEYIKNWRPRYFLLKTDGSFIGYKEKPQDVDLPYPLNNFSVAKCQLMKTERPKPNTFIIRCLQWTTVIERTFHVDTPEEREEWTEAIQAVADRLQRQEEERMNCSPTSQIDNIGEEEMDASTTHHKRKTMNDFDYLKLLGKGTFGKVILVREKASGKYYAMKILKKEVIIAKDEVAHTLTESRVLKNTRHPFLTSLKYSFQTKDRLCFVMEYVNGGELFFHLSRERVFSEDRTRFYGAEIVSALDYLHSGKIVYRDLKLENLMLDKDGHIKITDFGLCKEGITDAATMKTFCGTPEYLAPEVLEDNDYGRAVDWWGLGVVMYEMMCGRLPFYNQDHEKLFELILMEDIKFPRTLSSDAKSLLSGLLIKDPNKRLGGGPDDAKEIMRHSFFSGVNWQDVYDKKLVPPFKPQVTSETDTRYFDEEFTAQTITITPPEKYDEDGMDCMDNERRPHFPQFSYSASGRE", "assay": "biochemical", "design": "KINOMEscan competition binding, DNA-tagged kinase against immobilised ligand, qPCR read-out", "conditions": "read-out: Percent Control"}, "[4]": {"target": "TNIK (Homo sapiens, UniProt Q9UKE5)", "assay": "biochemical", "design": "KINOMEscan competition binding, DNA-tagged kinase against immobilised ligand, qPCR read-out", "conditions": "read-out: Percent Control"}, "[5]": {"target": "MARK1 (Homo sapiens, UniProt Q9P0L2)", "assay": "biochemical", "design": "KINOMEscan competition binding, DNA-tagged kinase against immobilised ligand, qPCR read-out", "conditions": "read-out: Percent Control"}, "[6]": {"target": "MAP3K19 (Homo sapiens, UniProt Q56UN5)", "sequence (Q56UN5 whole entry)": "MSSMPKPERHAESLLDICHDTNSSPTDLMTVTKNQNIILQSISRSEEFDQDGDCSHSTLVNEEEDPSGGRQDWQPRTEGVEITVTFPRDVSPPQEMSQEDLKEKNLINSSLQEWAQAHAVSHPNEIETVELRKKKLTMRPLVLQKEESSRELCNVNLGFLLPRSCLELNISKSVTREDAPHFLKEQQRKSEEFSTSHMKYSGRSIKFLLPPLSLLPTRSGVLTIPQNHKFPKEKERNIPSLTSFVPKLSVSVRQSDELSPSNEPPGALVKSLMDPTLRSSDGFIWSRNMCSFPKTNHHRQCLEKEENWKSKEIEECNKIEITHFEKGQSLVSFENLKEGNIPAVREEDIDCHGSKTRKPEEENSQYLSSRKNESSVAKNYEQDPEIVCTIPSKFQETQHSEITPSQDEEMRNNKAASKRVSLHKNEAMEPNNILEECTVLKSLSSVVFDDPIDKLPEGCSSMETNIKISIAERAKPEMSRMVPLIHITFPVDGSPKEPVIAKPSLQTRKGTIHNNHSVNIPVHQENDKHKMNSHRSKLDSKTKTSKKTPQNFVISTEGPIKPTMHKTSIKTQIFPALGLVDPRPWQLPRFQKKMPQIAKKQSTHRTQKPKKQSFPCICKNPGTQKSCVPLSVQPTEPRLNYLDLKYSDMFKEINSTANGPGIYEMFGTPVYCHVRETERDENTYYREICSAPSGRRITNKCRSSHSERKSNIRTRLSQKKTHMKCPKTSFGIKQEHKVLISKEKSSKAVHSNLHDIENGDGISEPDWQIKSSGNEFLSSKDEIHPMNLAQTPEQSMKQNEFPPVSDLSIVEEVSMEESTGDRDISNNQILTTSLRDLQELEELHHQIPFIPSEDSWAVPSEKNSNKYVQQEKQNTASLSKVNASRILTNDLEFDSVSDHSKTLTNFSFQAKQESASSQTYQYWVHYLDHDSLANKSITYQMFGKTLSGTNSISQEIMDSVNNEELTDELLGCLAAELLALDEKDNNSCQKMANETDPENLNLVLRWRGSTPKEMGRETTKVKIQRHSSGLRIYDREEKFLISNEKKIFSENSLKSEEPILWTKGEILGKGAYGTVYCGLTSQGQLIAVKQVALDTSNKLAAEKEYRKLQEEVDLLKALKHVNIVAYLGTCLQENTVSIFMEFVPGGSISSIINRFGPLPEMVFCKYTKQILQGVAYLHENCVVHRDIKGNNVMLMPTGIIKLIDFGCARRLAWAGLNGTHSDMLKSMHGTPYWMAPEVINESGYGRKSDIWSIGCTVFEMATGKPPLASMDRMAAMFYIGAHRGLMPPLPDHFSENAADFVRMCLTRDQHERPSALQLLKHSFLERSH", "assay": "biochemical", "design": "KINOMEscan competition binding, DNA-tagged kinase against immobilised ligand, qPCR read-out", "in_short": "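Serial 3-fold dilutions (11 points) of compound were made in 100% DMSO at 100× test concentration and diluted to 1× in the assay. Each compound concentration was then competed against an immobilised ligand for binding of DNA-tagged kinase. Ligand-bound kinase was measured by RT-qPCR.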"}, "[7]": {"target": "MAST1 (Homo sapiens, UniProt Q9Y2H9)", "sequence (Q9Y2H9 whole entry)": "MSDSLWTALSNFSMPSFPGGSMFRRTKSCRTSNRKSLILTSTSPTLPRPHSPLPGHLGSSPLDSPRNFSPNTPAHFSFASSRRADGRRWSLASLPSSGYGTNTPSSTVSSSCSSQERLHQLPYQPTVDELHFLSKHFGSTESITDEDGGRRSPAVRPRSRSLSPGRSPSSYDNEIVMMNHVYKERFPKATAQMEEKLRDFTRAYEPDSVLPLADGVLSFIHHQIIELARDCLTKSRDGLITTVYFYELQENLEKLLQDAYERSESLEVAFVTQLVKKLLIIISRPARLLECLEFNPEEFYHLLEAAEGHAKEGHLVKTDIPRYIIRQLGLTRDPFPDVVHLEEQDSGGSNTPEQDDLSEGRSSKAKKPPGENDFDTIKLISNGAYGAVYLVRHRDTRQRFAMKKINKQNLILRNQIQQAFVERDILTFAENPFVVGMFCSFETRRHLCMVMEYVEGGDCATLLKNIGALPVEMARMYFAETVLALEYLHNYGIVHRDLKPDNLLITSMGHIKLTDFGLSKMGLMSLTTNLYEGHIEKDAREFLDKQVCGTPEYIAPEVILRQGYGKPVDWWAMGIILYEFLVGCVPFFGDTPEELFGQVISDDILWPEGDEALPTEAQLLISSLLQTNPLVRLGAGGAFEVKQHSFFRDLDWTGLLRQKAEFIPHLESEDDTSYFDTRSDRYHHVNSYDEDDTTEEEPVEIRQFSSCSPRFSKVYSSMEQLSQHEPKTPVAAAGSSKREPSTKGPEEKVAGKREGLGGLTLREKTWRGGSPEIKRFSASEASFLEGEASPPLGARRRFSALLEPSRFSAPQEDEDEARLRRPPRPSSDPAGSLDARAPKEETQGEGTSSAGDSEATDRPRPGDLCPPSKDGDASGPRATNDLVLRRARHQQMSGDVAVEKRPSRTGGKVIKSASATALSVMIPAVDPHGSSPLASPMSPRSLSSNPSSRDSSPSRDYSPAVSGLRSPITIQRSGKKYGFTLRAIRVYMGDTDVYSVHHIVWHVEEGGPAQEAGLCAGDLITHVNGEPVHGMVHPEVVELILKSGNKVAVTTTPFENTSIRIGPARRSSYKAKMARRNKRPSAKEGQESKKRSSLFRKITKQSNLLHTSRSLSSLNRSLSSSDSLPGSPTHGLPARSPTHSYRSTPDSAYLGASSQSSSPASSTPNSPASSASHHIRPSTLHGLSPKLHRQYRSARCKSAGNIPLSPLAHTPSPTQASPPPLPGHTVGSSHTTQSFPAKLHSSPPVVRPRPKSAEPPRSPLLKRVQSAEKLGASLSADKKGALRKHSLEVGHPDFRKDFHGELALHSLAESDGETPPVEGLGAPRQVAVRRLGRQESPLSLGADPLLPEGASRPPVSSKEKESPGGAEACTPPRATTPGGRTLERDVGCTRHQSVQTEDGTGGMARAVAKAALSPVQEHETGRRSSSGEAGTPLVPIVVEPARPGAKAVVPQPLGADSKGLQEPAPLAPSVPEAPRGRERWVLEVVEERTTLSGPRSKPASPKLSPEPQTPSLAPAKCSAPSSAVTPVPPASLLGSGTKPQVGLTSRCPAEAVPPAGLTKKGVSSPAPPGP", "assay": "biochemical", "design": "KINOMEscan competition binding, DNA-tagged kinase against immobilised ligand, qPCR read-out", "conditions": "read-out: Percent Control"}, "[8]": {"target": "MAP4K1 (Homo sapiens, UniProt Q92918)", "assay": "biochemical", "design": "KINOMEscan competition binding, DNA-tagged kinase against immobilised ligand, qPCR read-out", "conditions": "read-out: Percent Control"}, "[9]": {"target": "BTK (Homo sapiens, UniProt Q06187)", "assay": "biochemical", "design": "KINOMEscan competition binding, DNA-tagged kinase against immobilised ligand, qPCR read-out", "conditions": "read-out: Percent Control"}, "[10]": {"target": "LTK (Homo sapiens, UniProt P29376)", "assay": "biochemical", "conditions": "read-out: Percent Control"}, "[11]": {"target": "DYRK1B (Homo sapiens, UniProt Q9Y463)", "assay": "biochemical", "conditions": "read-out: Percent Control"}, "[12]": {"target": "PIM2 (Homo sapiens, UniProt Q9P1W9)", "assay": "biochemical", "design": "KINOMEscan competition binding, DNA-tagged kinase against immobilised ligand, qPCR read-out"}, "[13]": {"target": "T2, TBK1 (TANK-binding kinase 1) (Homo sapiens, UniProt Q9UHD2)", "T2 construct": "full-length human TBK1, expressed in Sf9, His tag removed by TEV", "T2 sequence (Q9UHD2 whole entry)": "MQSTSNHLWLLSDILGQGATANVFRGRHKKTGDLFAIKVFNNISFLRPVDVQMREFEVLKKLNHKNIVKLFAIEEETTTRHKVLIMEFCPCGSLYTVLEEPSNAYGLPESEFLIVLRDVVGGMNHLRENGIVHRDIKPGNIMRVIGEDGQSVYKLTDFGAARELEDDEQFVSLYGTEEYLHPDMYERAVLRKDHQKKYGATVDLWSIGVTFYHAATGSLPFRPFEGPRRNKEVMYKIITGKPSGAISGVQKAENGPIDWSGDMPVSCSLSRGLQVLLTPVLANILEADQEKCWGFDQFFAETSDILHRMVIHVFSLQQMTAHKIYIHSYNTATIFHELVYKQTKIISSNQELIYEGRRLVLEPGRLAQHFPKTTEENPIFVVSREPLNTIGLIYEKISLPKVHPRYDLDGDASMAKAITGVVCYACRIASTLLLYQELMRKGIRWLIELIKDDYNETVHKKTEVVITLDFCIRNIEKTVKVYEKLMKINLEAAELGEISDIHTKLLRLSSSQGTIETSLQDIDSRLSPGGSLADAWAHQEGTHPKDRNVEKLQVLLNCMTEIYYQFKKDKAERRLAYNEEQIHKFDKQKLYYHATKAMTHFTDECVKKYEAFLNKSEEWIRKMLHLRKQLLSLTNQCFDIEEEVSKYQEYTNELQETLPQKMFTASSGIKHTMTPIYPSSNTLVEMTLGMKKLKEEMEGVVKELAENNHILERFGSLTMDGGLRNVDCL", "assay": "surface plasmon resonance (Biacore T200, steady-state affinity)"}},
  "data": [
    {"smiles": "Oc1ccc(C2=Cc3ccc(O)cc3OC2)cc1", "note": "[compound 1, idronoxil]", "values": [
      {"measurement": "remaining binding at 10 µM", "setting": "[1]", "value": 81, "unit": "%"},
      {"measurement": "remaining binding at 10 µM", "setting": "[2]", "value": 26, "unit": "%"},
      {"measurement": "remaining binding at 10 µM", "setting": "[3]", "value": 84, "unit": "%"},
      {"measurement": "remaining binding at 10 µM", "setting": "[4]", "value": 56, "unit": "%"},
      {"measurement": "remaining binding at 10 µM", "setting": "[5]", "value": 91, "unit": "%"},
      {"measurement": "Kd", "setting": "[6]", "value": 2.2, "unit": "µM"},
      {"measurement": "remaining binding at 10 µM", "setting": "[6]; read-out: Percent Control", "value": 12, "unit": "%"},
      {"measurement": "remaining binding at 10 µM", "setting": "[7]", "value": 93, "unit": "%"},
      {"measurement": "remaining binding at 10 µM", "setting": "[8]", "value": 78, "unit": "%"},
      {"measurement": "remaining binding at 10 µM", "setting": "[9]", "value": 97, "unit": "%"},
      {"measurement": "remaining activity at 10 µM", "setting": "[10]", "value": 95, "unit": "%"},
      {"measurement": "remaining activity at 10 µM", "setting": "[11]", "value": 27, "unit": "%"},
      {"measurement": "Kd", "setting": "[12]", "value": 2.3, "unit": "µM"},
      {"measurement": "Kd", "setting": "[13]", "value": 39.2, "unit": "µM"}
    ]}
  ]
}
